# Laboratory results reported in publication doi:10.1101/2022.03.07.483284v1 (biorxiv, 2022).
# Molecular target: T1, WTapPOL (intact exonuclease domain) (Plasmodium falciparum, UniProt Q8ILY1)
# T1 sequence (Q8ILY1 1389-2016): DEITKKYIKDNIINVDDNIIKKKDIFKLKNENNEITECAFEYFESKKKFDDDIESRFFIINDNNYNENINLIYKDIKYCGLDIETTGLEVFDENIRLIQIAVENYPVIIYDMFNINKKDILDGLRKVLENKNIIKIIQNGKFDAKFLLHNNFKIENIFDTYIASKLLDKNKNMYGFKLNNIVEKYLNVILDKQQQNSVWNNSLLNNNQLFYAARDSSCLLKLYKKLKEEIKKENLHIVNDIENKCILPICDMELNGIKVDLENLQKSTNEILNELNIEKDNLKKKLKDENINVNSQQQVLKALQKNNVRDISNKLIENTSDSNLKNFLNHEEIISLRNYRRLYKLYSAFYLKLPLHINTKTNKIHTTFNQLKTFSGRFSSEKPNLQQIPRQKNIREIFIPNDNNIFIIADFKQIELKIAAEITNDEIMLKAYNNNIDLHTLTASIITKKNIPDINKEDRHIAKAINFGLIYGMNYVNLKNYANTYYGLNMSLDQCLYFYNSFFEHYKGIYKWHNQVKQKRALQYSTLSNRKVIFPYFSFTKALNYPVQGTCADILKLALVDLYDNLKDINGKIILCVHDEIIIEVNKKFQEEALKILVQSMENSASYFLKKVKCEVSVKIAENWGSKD
# Experiment: […]'-5' exonuclease assay, 2-aminopurine release from blunt-ended dsDNA
# Format: biochemical
# Conditions: read-out: % inhibition at 100 μM
row,inhibition at 100 µM,SMILES
1,< 50%,CC(C)(C)c1ccc(NC(=O)Nc2c3c(nn2-c2cccc(Cl)c2)COC3)cc1 [13a]
2,< 50%,CC(C)(C)c1ccc(NC(=O)Nc2c3c(nn2-c2cccc(Cl)c2)CSC3)cc1 [7a]
3,< 50%,"CC(C)(C)c1ccc(C(=O)Nc2c3c(nn2-c2cccc(Cl)c2)CSC3)cc1 [5a, MMV666123]"
4,< 50%,CC(C)(C)c1ccc(NC(=O)Nc2c3c(nn2-c2ccc(Cl)cc2)CSC3)cc1 [7b]
5,< 50%,CC(C)(C)c1ccc(NC(=O)Nc2c3c(nn2-c2cccc(C(F)(F)F)c2)CSC3)cc1 [7e]

# Molecular target: T1, WTapPOL (intact exonuclease domain)
# Experiment: as above
# Format: biochemical
# Conditions: not given
row,IC50,SMILES
1,16 ± 0.9 µM,CC(C)(C)c1ccc(S(=O)(=O)Nc2c3c(nn2-c2ccc(C(F)(F)F)cc2)CSC3)cc1 [6f]
2,40 ± 5.7 µM,CC(C)(C)c1ccc(S(=O)(=O)Nc2c3c(nn2-c2cccc(Cl)c2)CSC3)cc1 [6a]
3,41 ± 6.7 µM,CC(C)(C)c1ccc(S(=O)(=O)Nc2c3c(nn2-c2cccc(C(F)(F)F)c2)CSC3)cc1 [6e]
4,21 ± 2.5 µM,CC(C)(C)c1ccc(S(=O)(=O)Nc2c3c(nn2-c2ccc(Cl)cc2)CSC3)cc1 [6b]
